# Experimental data reported in patent publication EP4389746A2, “P2X3 RECEPTOR ANTAGONISTS” (Recordati Industria Chimica E Farmaceutica SPA, priority 2022, dated 2024).
# Target: T1, human P2X3 receptor (Homo sapiens, UniProt P56373)
# T1 construct: expressed in transfected cells; host or cells: CHO-K1
# T1 sequence (P56373 1-397): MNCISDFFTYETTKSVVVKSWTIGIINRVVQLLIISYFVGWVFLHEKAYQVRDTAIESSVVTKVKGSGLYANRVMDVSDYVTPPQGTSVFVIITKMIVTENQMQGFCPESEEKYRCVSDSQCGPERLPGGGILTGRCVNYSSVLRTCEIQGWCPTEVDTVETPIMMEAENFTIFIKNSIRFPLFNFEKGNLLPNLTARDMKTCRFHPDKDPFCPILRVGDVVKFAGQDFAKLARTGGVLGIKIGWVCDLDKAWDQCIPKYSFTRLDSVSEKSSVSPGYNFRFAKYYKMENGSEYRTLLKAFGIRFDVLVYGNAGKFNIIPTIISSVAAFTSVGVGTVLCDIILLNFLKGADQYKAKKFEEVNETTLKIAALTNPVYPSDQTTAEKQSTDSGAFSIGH
# Assay: Calcium luminescence measurement: human P2X3 receptor activity inhibition (CHO-K1 cells, photoprotein readout, FLEXSTATION)
# Format: cell-based
# Conditions: CHO-K1 cells co-expressing human P2X3 and Ca2+ sensitive photoprotein; agonist α,β-Met-ATP; read-out: h-P2X3 IC50
# Method: Determination of human P2X3 receptor activity inhibition
# The assay for the human purinergic P2RX3 receptor has been adapted to the internal screening instrumentation using the FLEXSTATION as reader and a photoprotein as luminescent readout. The assay consists of CHO-K1 cells recombinantly co-expressing the human P2rx3 receptor and a Ca^2+ sensitive photoprotein. Cells are maintained in DMEM F-12 (1:1) mixture (LONZA cat. n° BE04-687F/U1) supplemented with 9 mL of 100 mM Sodium Pyruvate (LONZA cat. n° BE13-115E), 29 mL of 7.5% Sodium Bicarbonate (LONZA cat. n° BE17-613E), 5.5 mL of 1 M Hepes (LONZA cat. n° BE17-737E), 5 mL of 100X Penicillin/Streptomycin mixture (LONZA cat. n° DE17-602E) and 50 mL of Fetal Bovine Serum (Sigma cat. n° F7524), 1 mg/mL G418 disulfate salt (Sigma cat. n° G8168) and 5 µg/ml Puromycin dihydrochloride (Sigma cat. n° P9620). Standard propagation conditions consist of seeding in a P75 flask twice a week, recovering about 20×10^6 cells, corresponding to about 80% confluency. Cells were seeded into black-walled clear bottom 96 well plates at a density of 40000 cells/well in a complete medium. After 24 h the culture medium was replaced with 200 µL/well of coelenterazine in Tyrode's buffer (Standard Tyrode's buffer: in house solution, 130 mM NaCl, 5 mM KCl, 2 mM CaCl2, 5 mM NaHCO3, 1 mM MgCl2, 20 mM HEPES, pH 7.4). Coelenterazine was purchased from BIOSYNTH (cat. n° C-7001). 10 mM stock solution was prepared in DMSO and glutathione and stored at -20° C. The plates were incubated for 4 hours at 37°C, and injected with 10 µL/well of test compounds at 25X concentration in Tyrode's buffer. After 4 minutes a second injection of 50 µL/well of 5X α,β-Met-ATP in Tyrode's buffer (α,β-Met-ATP: from Tocris (cat. n° 3209), was dissolved at 100 mM in water and stored in aliquots at -20°C) was performed and the signal of the emitted luminescence was recorded by FLEXSTATION III (Molecular Devices). […]
# The inhibition curves of the tested compounds at cloned P2X3 receptor were determined by nonlinear regression analysis using software Prism 5.0 (Graphpad, San Diego, CA). The IC50 values and pseudo-Hill slope coefficients were estimated by the program.
row,IC50,Molecule
1,1080 nM,"CC(C)[C@H]1CN2C(=O)N(Cc3ccc(Cl)cc3)c3cc(N4CCOCC4)cnc3C2=N1 (single isomer, unassigned) [Example 10]"
2,113 nM,"CC(C)[C@@H]1CN2C(=O)N(Cc3ccc(Cl)cc3)c3cc(N4CCOCC4)cnc3C2=N1 (single isomer, unassigned) [Example 11]"
3,64.7 nM,"CC(C)C1C(=O)N=C2c3ncc(N4CCOCC4)cc3N(Cc3ccc(Cl)cc3)C(=O)N21 (single isomer, unassigned) [Example 23, (R or S)-6-[(4-Chlorophenyl)methyl]-8-(morpholin-4-yl)-3-(propan-2-yl)imidazo[1,2-c]pyrido[2,3-e]pyrimidine-2,5(3H,6H)-dione]"
4,56.2 nM,"CC(C)C1C(=O)N=C2c3ncc(N4CCOCC4)cc3N(Cc3ccc(Cl)cc3)C(=O)N21 (single isomer, unassigned) [Example 24, (S or R)-6-[(4-Chlorophenyl)methyl]-8-(morpholin-4-yl)-3-(propan-2-yl)imidazo[1,2-c]pyrido[2,3-e]pyrimidine-2,5(3H,6H)-dione]"
5,27.3 nM,"COc1cc(CN2C(=O)N3CC(C(C)(C)C)N=C3c3ncc(N4CCOCC4)cc32)cc(OC)c1 (stereo not shown) [Example 3, 2-tert-Butyl-6-(3,5-dimethoxybenzyl)-8-(morpholin-4-yl)-2,6-dihydroimidazo[1,2-c]pyrido[2,3-e]pyrimidin-5(3H)-one]"
6,54 nM,"CC(C)(CO)C1CN2C(=O)N(Cc3ccc(Cl)cc3)c3cc(N4CCOCC4)cnc3C2=N1 (stereo not shown) [Example 12, 6-(4-Chlorobenzyl)-2-(1-hydroxy-2-methylpropan-2-yl)-8-(morpholin-4-yl)-2,6-dihydroimidazo[1,2-c]pyrido[2,3-e]pyrimidin-5(3H)-one]"
7,11800 nM,"CC(C)C1CN2C(=O)N(Cc3ccc(Cl)cc3)c3cc(NC(CO)CO)cnc3C2=N1 (stereo not shown) [Example 15, 6-[(4-Chlorophenyl)methyl]-8-[(1,3-dihydroxypropan-2-yl)amino]-2-(propan-2-yl)-2,6-dihydroimidazo[1,2-c]pyrido[2,3-e]pyrimidin-5(3H)-one]"
8,123 nM,"CC(C)C1C(=O)N=C2c3ncc(N4CCC(=O)CC4)cc3N(Cc3ccc(Cl)cc3)C(=O)N21 (stereo not shown) [Example 25, 6-[(4-Chlorophenyl)methyl]-8-(4-oxopiperidin-1-yl)-3-(propan-2-yl)imidazo[1,2-c]pyrido[2,3-e]pyrimidine-2,5(3H,6H)-dione]"
9,1260 nM,"CC(C)c1nnc2c3ncc(N4CCC(=O)CC4)cc3n(Cc3ccc(Cl)cc3)c(=O)n12 [Example 39, 6-[(4-Chlorophenyl)methyl]-8-(4-oxopiperidin-1-yl)-3-(propan-2-yl)pyrido[2,3-e][1,2,4]triazolo[4,3-c]pyrimidin-5(6H)-one]"
10,491 nM,"COc1ccc(Cn2c(=O)n3c(C(C)(C)C)nnc3c3ncc(N4CCC(N)CC4)cc32)cc1 [Example 40, 8-(4-Aminopiperidin-1-yl)-3-tert-butyl-6-[(4-methoxyphenyl)methyl]pyrido[2,3-e][1,2,4]triazolo[4,3-c]pyrimidin-5(6H)-one]"
11,1170 nM,"COc1cc(Cn2c(=O)n3c(C(C)(C)C)nnc3c3ncc(N4CCOCC4)cc32)ccc1F [Example 42, 3-tert-Butyl-6-[(4-fluoro-3-methoxyphenyl)methyl] -8-(morpholin-4-yl)pyrido[2,3-e][1,2,4]triazolo[4,3-c]pyrimidin-5(6H)-one]"
12,2550 nM,"COC(C)(C)c1nnc2c3nnc(N4CCN(C(=O)OC(C)(C)C)CC4)cc3n(Cc3ccc(Cl)cc3)c(=O)n12 [Example 45, tert-Butyl 4-{6-[(4-chlorophenyl)methyl]-3-(2-methoxypropan-2-yl)-5-oxo-5,6-dihydro[1,2,4]triazolo[4',3':1,6]pyrimido[5 ,4-c]pyridazin-8-yl}piperazine-1-carboxylate]"

# Continued, molecule first:
row,Molecule,IC50
1,"3-tert-Butyl-6-[(4-chlorophenyl)methyl] -8-[4-(hydroxymethyl)piperidin-1-yl]pyrido[2,3-e][1,2,4]triazolo[4,3-c]pyrimidin-5(6H)-one [Example 41]",9.5 nM
2,"CC(C)C1CN=C2c3ncc(N4CCOCC4)cc3N(Cc3ccc(Cl)cc3)C(=O)N21 (stereo not shown) [Example 1, 6-(4-Chlorobenzyl)-8-(morpholin-4-yl)-3-(propan-2-yl)-2,6-dihydroimidazo[1,2-c]pyrido[2,3-e]pyrimidin-5(3H)-one]",703 nM
3,"CC1(C)CN2C(=O)N(Cc3ccc(Cl)cc3)c3cc(N4CCOCC4)cnc3C2=N1 [Example 2, 6-(4-Chlorobenzyl)-2,2-dimethyl-8-(morpholin-4-yl)-2,6-dihydroimidazo[1,2-c]pyrido[2,3-e]pyrimidin-5(3H)-one]",1010 nM
4,"CC(C)(C)C1CN2C(=O)N(Cc3ccc(Cl)cc3)c3cc(N4CCOCC4)cnc3C2=N1 (stereo not shown) [Example 4, 2-tert-Butyl-6-(4-chlorobenzyl)-8-(morpholin-4-yl)-2,6-dihydroimidazo[1,2-c]pyrido[2,3-e]pyrimidin-5(3H)-one]",181 nM
5,"CC(C)C1CN2C(=O)N(Cc3ccc(Cl)cc3)c3cc(N4CCC(N)CC4)cnc3C2=N1 (stereo not shown) [Example 7, 8-(4-Aminopiperidin-1-yl)-6-[(4-chlorophenyl)methyl]-2-(propan-2-yl)-2,6-dihydroimidazo[1,2-c]pyrido[2,3-e]pyrimidin-5(3H)-one]",642 nM
6,"CC(C)C1CN2C(=O)N(Cc3ccc(Cl)cc3)c3cc(N4CCNCC4)cnc3C2=N1 (stereo not shown) [Example 8, 6-[(4-Chlorophenyl)methyl]-8-(piperazin-1-yl)-2-(propan-2-yl)-2,6-dihydroimidazo[1,2-c]pyrido[2,3-e]pyrimidin-5(3H)-one]",1380 nM
7,"CC(C)C1CN2C(=O)N(Cc3ccc(Cl)cn3)c3cc(N4CCOCC4)cnc3C2=N1 (stereo not shown) [Example 13, 6-[(5-Chloropyridin-2-yl)methyl]-8-(morpholin-4-yl)-2-(propan-2-yl)-2,6-dihydroimidazo[1,2-c]pyrido[2,3-e]pyrimidin-5(3H)-one]",865 nM
8,"COc1ccc(CN2C(=O)N3CC(C(C)C)N=C3c3ncc(N4CCOCC4)cc32)nc1 (stereo not shown) [Example 14, 6-[(5-Methoxypyridin-2-yl)methyl]-8-(morpholin-4-yl)-2-(propan-2-yl)-2,6-dihydroimidazo[1,2-c]pyrido[2,3-e]pyrimidin-5(3H)-one]",822 nM
9,"CC(C)C1CN2C(=O)N(Cc3ccc(Cl)cc3)c3cc(NC4CCOCC4)cnc3C2=N1 (stereo not shown) [Example 16, 6-[(4-Chlorophenyl)methyl]-8-[(oxan-4-yl)amino]-2-(propan-2-yl)-2,6-dihydroimidazo[1,2-c]pyrido[2,3-e]pyrimidin-5(3H)-one]",872 nM
10,"COc1ccc(Cn2c(=O)n3c(C(C)(C)OC)nnc3c3ncc(N4CCOCC4)cc32)cc1 [Example 33, 6-(4-Methoxybenzyl)-3-(2-methoxypropan-2-yl)-8-(morpholin-4-yl)pyrido[2,3-e][1,2,4]triazolo[4,3-c]pyrimidin-5(6H)-one]",301 nM
11,"COc1ccc(Cn2c(=O)n3c(C(C)(C)C)nnc3c3ncc(N4CCC(OC)CC4)cc32)cc1 [Example 37, 3-tert-Butyl-6-[(4-methoxyphenyl)methyl] -8-(4-methoxypiperidin-1-yl)pyrido[2,3-e][1,2,4]triazolo[4,3-c]pyrimidin-5(6H)-one]",339 nM
12,"COC(C)(C)c1nnc2c3nnc(N4CCNCC4)cc3n(Cc3ccc(Cl)cc3)c(=O)n12 [Example 46, 6-[(4-Chlorophenyl)methyl]-3-(2-methoxypropan-2-yl)-8-(piperazin-1-yl)[1,2,4]triazolo[4',3': 1,6]pyrimido[5,4-c]pyridazin-5(6H)-one]",322 nM
13,"COC(C)(C)c1nnc2c3nnc(N4CCN(C(C)=O)CC4)cc3n(Cc3ccc(Cl)cc3)c(=O)n12 [Example 47, 8-(4-Acetylpiperazin-1-yl) -6-[(4-chlorophenyl)methyl]-3-(2-methoxypropan-2-yl)[1,2,4]triazolo[4',3': 1,6]pyrimido[5,4-c]pyridazin-5(6H)-one]",242 nM
